This is an account of results in US20250361233A1, “Compounds For Activating Serotonin Receptor” (PSYLO PTY LTD, priority 2023, published 2025).

Assay type in all cases: cell-based
For assay [1], the target named is T1, 5-HT2C receptor (Homo sapiens, UniProt P28335).
T1 construct: host or cells: HEK293
T1 sequence (P28335 33-458): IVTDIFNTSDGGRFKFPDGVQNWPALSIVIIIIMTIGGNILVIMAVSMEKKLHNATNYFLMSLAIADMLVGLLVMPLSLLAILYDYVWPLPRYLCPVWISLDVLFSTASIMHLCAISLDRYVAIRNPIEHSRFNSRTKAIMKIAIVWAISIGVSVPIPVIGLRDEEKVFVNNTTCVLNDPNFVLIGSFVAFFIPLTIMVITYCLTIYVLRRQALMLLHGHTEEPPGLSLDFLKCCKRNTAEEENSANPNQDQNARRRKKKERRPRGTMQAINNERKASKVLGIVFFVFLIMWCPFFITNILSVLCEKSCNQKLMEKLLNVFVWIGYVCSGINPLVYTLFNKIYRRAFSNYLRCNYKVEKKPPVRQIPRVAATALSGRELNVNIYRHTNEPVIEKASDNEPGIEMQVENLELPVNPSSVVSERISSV
Briefly: FLIPR Ca2+ flux functional assay, agonist activity at 5-HT2C. The note with it: stably transfected HEK293 cells. The protocol: (§1) Functional assays 5-HT2A, 5-HT2B and 5-HT2C Receptors
(§2) Activity at 5-HT2A, 5-HT2B and 5-HT2C receptors was determined using a FLIPR Ca2+ flux assay at WuXi AppTec Co. Ltd. (Hong Kong) Discovery Biology Unit according to their standard protocols. Briefly, stably transfected cells expressing the receptor of interest (HEK293 for 5-HT2A and 5-HT2C; CHO-K1 for 5-HT2B) were grown and plated in a 384 well plate and incubated at 37° C. and 5% CO2 overnight. A 250 mM stock solution of probenecid in FLIPR calcium assay buffer (10 mL) was freshly prepared and combined with a fluorescent dye (Fluo-4 Direct) to give a final assay concentration of 2.5 mM. Reference compounds were 4-fold serially diluted and the screening compounds were 3-fold serially diluted in 100% DMSO for 10 points using Agilent Bravo, and 750 nL was added to a 384 well compound plate using Echo along with 30 μL assay buffer. The fluorescent dye was then added to the assay plate along with assay buffer to a final volume of 40 μL. The cell plate was incubated for 50 min at 37° C. and 5% CO2 and placed into the FLIPR Tetra along with the compound plate. 10 μL of references and compounds were then transferred from the compound plate into the cell plate and the fluorescent signal was read.
(Calcium flux is commonly read through the fluorescence of an indicator in the cells.)

Assay [2] deals with T2, 5-HT2B receptor (Homo sapiens, UniProt P41595).
T2 construct: host or cells: CHO-K1
The experiment in a line: 5-HT2B activation in a similar assay at a single 10 μM concentration. The protocol: Activation data are provided in a similar assay tested at a single 10 μM concentration.

The target of assay [3] is T3, 5-HT2A receptor (Homo sapiens, UniProt P28223).
T3 construct: host or cells: HEK293
Briefly: FLIPR Ca2+ flux functional assay, agonist activity at 5-HT2A. The note with it: stably transfected HEK293 cells. On the procedure: as §1, §2

T3 sequence (P28223 whole entry): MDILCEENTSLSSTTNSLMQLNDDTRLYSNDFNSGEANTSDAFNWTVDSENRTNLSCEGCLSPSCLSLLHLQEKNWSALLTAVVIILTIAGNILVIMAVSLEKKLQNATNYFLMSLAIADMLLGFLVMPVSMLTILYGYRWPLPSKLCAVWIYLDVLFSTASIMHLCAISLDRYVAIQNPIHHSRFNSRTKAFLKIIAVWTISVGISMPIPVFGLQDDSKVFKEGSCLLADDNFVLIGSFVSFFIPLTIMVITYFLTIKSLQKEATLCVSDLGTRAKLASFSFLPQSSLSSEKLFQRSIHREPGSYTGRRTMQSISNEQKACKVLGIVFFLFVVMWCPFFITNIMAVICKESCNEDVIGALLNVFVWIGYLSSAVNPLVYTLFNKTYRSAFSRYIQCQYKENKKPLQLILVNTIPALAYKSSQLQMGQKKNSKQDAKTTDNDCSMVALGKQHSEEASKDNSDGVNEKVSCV
T2 sequence (P41595 whole entry): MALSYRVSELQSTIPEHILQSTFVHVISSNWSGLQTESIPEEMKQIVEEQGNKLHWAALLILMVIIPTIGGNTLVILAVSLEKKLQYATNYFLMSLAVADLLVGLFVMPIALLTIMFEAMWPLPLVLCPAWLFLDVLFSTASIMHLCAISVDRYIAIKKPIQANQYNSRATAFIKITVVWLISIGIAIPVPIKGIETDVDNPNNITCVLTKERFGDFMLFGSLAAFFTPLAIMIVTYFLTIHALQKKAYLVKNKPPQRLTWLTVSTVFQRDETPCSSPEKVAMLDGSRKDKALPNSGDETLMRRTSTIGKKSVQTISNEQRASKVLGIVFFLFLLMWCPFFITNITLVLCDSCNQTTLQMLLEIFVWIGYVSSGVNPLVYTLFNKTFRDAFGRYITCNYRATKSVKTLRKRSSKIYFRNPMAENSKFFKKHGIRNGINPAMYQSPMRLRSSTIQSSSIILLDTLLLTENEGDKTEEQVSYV

One may read the EC50 as the concentration at which the effect is half-maximal. Low values mean greater potency, high ones weaker potency. What is called Emax is the size of the effect at its maximum, as opposed to the concentration needed. Regarding `CN(CCc1c[nH]c2ncc(F)cc12)C1CC1` [Compound S1, N-(2-(5-fluoro-1H-pyrrolo[2,3-b]pyridin-3-yl)ethyl)-N-methylcyclopropanamine], the EC50 worked out at 1440 nM in assay [1] and 33.7 nM in assay [3]. Further, the values for the maximal response (Emax) in assay [1] and in assay [3] were 77% and 82%, respectively. The “5-HT2B % Activation @ 10 μM” value in assay [2] is listed as 2%.
On to `Fc1cnc2[nH]cc(CCNC3CC3)c2c1` [Compound S2, N-(2-(5-fluoro-1H-pyrrolo[2,3-b]pyridin-3-yl)ethyl)cyclopropanamine], for which, in assay [1], the EC50 was 187 nM and the Emax amounted to 92%. The “5-HT2B % Activation @ 10 μM” value in assay [2] was found to be 74%. In assay [3], this compound gave an EC50 of 10.8 nM and an Emax of 92%.
`Fc1cnc2[nH]cc(CCN(C3CC3)C3CC3)c2c1` [Compound S5, N-cyclopropyl-N-(2-(5-fluoro-1H-pyrrolo[2,3-b]pyridin-3-yl)ethyl)cyclopropanamine]: the figures for the concentration for a half-maximal effect (EC50) in assay [1] and in assay [3] were > 10000 nM and 1070 nM, respectively. In addition, the maximal response (Emax) came to 28% in assay [1] and 82% in assay [3].
Turning to `Fc1cnc2[nH]cc(CCN3CCCC3)c2c1` [Compound S6, 5-fluoro-3-(2-(pyrrolidin-1-yl)ethyl)-1H-pyrrolo[2,3-b]pyridine], the figures for the EC50 in assay [1] and in assay [3] were 1860 nM and 37.9 nM, respectively. The Emax in assay [1] and in assay [3] was 81% in each case. Also, the “5-HT2B % Activation @ 10 μM” value in assay [2] stood at 16%.
In the case of `Fc1cnc2[nH]cc(CCN3CCCCC3)c2c1` [Compound S7, 5-fluoro-3-(2-(piperidin-1-yl)ethyl)-1H-pyrrolo[2,3-b]pyridine], in assay [1], the EC50 is > 10000 nM and the Emax amounted to 2%. In addition, the “5-HT2B % Activation @ 10 μM” value in assay [2] was found to be 0%. In assay [3], this compound returned an EC50 of 529 nM and an Emax of 70%.
For the compound `Fc1cnc2[nH]cc(CCN3CCC34CCC4)c2c1` [Compound S8, 3-(2-(1-azaspiro[3.3]heptan-1-yl)ethyl)-5-fluoro-1H-pyrrolo[2,3-b]pyridine], in assay [1], the EC50 is > 10000 nM and the maximum response (Emax) was found to be 0%. In assay [3], the EC50 came out at 354 nM and the maximal effect (Emax) turned out to be 56%.
As for `Fc1cnc2[nH]cc(CCN3CCC3)c2c1` [Compound S9, 3-(2-(azetidin-1-yl)ethyl)-5-fluoro-1H-pyrrolo[2,3-b]pyridine], in assay [1], the EC50 came out at 1480 nM and the Emax is 72%. Also, in assay [3], the response was half-maximal at 21 nM (EC50) and the Emax amounted to 83%.
As for `Fc1cnc2[nH]cc(CCNC3CCC3)c2c1` [Compound S11, N-(2-(5-fluoro-1H-pyrrolo[2,3-b]pyridin-3-yl)ethyl)cyclobutanamine], the EC50 in assay [1] is > 10000 nM; in assay [3] it was 136 nM. In addition, the Emax in assay [1] worked out at 25%; in assay [3], 80%.
In assay [1], `CN(CCc1c[nH]c2ncc(F)cc12)C1CCC1` [Compound S12, N-(2-(5-fluoro-1H-pyrrolo[2,3-b]pyridin-3-yl)ethyl)-N-methylcyclobutanamine] registered an EC50 of 3370 nM and a maximal response (Emax) of 50%. Further, in assay [3], a half-maximal effect (EC50) was put at 79 nM and the Emax stood at 84%.
The corresponding values for `Fc1cnc2[nH]cc(CCN3CCOCC3)c2c1` [Compound S15, 4-(2-(5-fluoro-1H-pyrrolo[2,3-b]pyridin-3-yl)ethyl)morpholine] are > 10000 nM, 0%, 1940 nM and 72%.
With `CC1CCN1CCc1c[nH]c2ncc(F)cc12` (centres unmarked) [Compound S16, 3-(2-(2-methylazetidin-1-yl)ethyl)-5-fluoro-1H-pyrrolo[2,3-b]pyridine], in assay [1], the 50% effective concentration (EC50) was 1100 nM and the Emax is 60%. In assay [3], the response was half-maximal at 32.5 nM (EC50) and the Emax came out at 81%.
In assay [1], `Fc1cnc2[nH]cc(CCNCC3CC3)c2c1` [Compound S17, N-(cyclopropylmethyl)-2-(5-fluoro-1H-pyrrolo[2,3-b]pyridin-3-yl)ethan-1-amine] returned a concentration giving a half-maximal response (EC50) of 4120 nM and an Emax of 35%. Moreover, the “5-HT2B % Activation @ 10 μM” value in assay [2] is listed as 7%. Further, in assay [3], the concentration giving a half-maximal response (EC50) worked out at 134 nM and the Emax turned out to be 84%.
Regarding `Fc1cnc2[nH]cc(CCN3CCC4CC43)c2c1` (centres unmarked) [Compound S25, 3-(2-(2-azabicyclo[3.1.0]hexan-2-yl)ethyl)-5-fluoro-1H-pyrrolo[2,3-b]pyridine], the EC50 in assay [1] was determined as 76 nM; in assay [3] it was 8.98 nM. The results for the Emax in assay [1] and in assay [3] were 84% and 87%, respectively. For the same compound, the “5-HT2B % Activation @ 10 μM” value in assay [2] amounted to 41%.
With `Fc1cnc2[nH]cc(CCNCc3ccccc3F)c2c1` [Compound S30, 2-(5-fluoro-1H-pyrrolo[2,3-b]pyridin-3-yl)-N-(2-fluorobenzyl)ethan-1-amine], the EC50 was 512 nM in assay [1] and 26.9 nM in assay [3]. Further, the results for the Emax in assay [1] and in assay [3] were 83% and 82%, respectively.
The matching figures for `Fc1cccc(CNCCc2c[nH]c3ncc(F)cc23)c1` [Compound S31, 2-(5-fluoro-1H-pyrrolo[2,3-b]pyridin-3-yl)-N-(3-fluorobenzyl)ethan-1-amine]: 515 nM, 15.5 nM, 76% and 87%.
With `COc1ccccc1CNCCc1c[nH]c2ncc(F)cc12` [Compound S32, 2-(5-fluoro-1H-pyrrolo[2,3-b]pyridin-3-yl)-N-(2-methoxybenzyl)ethan-1-amine], in assay [1], the half-maximal effective concentration (EC50) is 206 nM and the maximal effect (Emax) stood at 89%. In assay [3], this compound displayed an EC50 of 3.31 nM and an Emax of 94%.
The corresponding values for `COc1cccc(CNCCc2c[nH]c3ncc(F)cc23)c1` [Compound S33, 2-(5-fluoro-1H-pyrrolo[2,3-b]pyridin-3-yl)-N-(3-methoxybenzyl)ethan-1-amine] are 244 nM, 87%, 8.27 nM and 82%.
On to `Fc1cnc2[nH]cc(CCNCc3ccccc3)c2c1` [Compound S34, N-benzyl-2-(5-fluoro-1H-pyrrolo[2,3-b]pyridin-3-yl)ethan-1-amine], for which the EC50 in assay [1] came out at 319 nM; in assay [3], 18 nM. Further, the Emax in assay [1] worked out at 84%; in assay [3], 90%.
As for `CN(CCc1c[nH]c2ncc(OC(F)(F)F)cc12)C1CC1` [Compound S41, N-methyl-N-(2-(5-(trifluoromethoxy)-1H-pyrrolo[2,3-b]pyridin-3-yl)ethyl)cyclopropanamine], the figures for the half-maximal effective concentration (EC50) in assay [1] and in assay [3] were > 10000 nM and 822 nM, respectively. Also, the results for the maximal effect (Emax) in assay [1] and in assay [3] were 0% and 41%, respectively. Besides, the “5-HT2B % Activation @ 10 μM” value in assay [2] is given as 0%.
In assay [1], `CN(CCc1c[nH]c2ncc(Cl)cc12)C1CC1` [Compound S42, N-(2-(5-chloro-1H-pyrrolo[2,3-b]pyridin-3-yl)ethyl)-N-methylcyclopropanamine] yielded an EC50 of 1100 nM and a maximum response (Emax) of 75%. Moreover, the “5-HT2B % Activation @ 10 μM” value in assay [2] is 15%. Moreover, in assay [3], the EC50 came out at 143 nM and the maximal response (Emax) stood at 58%.
For the compound `CN(CCc1c[nH]c2ncc(F)cc12)CC1CC1` [Compound S43, N-(cyclopropylmethyl)-2-(5-fluoro-1H-pyrrolo[2,3-b]pyridin-3-yl)-N-methylethan-1-amine], the values for the EC50 in assay [1] and in assay [3] were 2740 nM and 155 nM, respectively. The Emax in assay [1] was found to be 55%; in assay [3], 71%.
As to `COc1cnc2[nH]cc(CCN(C)C3CC3)c2c1` [Compound S44, N-(2-(5-methoxy-1H-pyrrolo[2,3-b]pyridin-3-yl)ethyl)-N-methylcyclopropanamine], the EC50 in assay [1] came to 2830 nM; in assay [3] it was 9.49 nM. For the same compound, the Emax in assay [1] came out at 45%; in assay [3], 82%. The “5-HT2B % Activation @ 10 μM” value in assay [2] is 1%.
`COc1cnc2[nH]cc(CCN3CCC3)c2c1` [Compound S45, 3-(2-(azetidin-1-yl)ethyl)-5-methoxy-1H-pyrrolo[2,3-b]pyridine]: in assay [1], the EC50 is > 10000 nM and the Emax was determined as 11%. The “5-HT2B % Activation @ 10 μM” value in assay [2] is recorded as 0%. Further, in assay [3], the EC50 stood at 24 nM and the maximal effect (Emax) is 86%.
The matching figures for `COc1cnc2[nH]cc(CCN3CCCC3)c2c1` [Compound S46, 5-methoxy-3-(2-(pyrrolidin-1-yl)ethyl)-1H-pyrrolo[2,3-b]pyridine]: 4170 nM, 43%, 3%, 47 nM and 91%.
